Measurements taken from PubChem BioAssay (NCI).
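Exposure lasted 48 hours, with cells grown in 96-well plates and compounds tested at five concentrations. GI50 = concentration required for 50% inhibition of growth. TGI: concentration producing complete growth inhibition.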

Legend:
Test in all cases: inhibition of tumour cell growth, NCI panel, 48 h
HS 578T breast = test system: HS 578T breast
MDA-N = test system: MDA-N
HOP-92 NSCLC = test system: HOP-92 NSCLC
SF-268 CNS = test system: SF-268 CNS
786-0 renal = test system: 786-0 renal
SW-620 colon = test system: SW-620 colon
SK-OV-3 ovarian = test system: SK-OV-3 ovarian
SK-MEL-2 melanoma = test system: SK-MEL-2 melanoma
SNB-75 CNS = test system: SNB-75 CNS
RXF 393 renal = test system: RXF 393 renal
SK-MEL-28 melanoma = test system: SK-MEL-28 melanoma
HOP-62 NSCLC = test system: HOP-62 NSCLC
CCRF-CEM leukemia = test system: CCRF-CEM leukemia
UACC-62 melanoma = test system: UACC-62 melanoma
A549 NSCLC = test system: A549 NSCLC
OVCAR-8 ovarian = test system: OVCAR-8 ovarian
OVCAR-3 ovarian = test system: OVCAR-3 ovarian
MCF7 breast = test system: MCF7 breast
HCC-2998 colon = test system: HCC-2998 colon
ACHN renal = test system: ACHN renal
UACC-257 melanoma = test system: UACC-257 melanoma
MALME-3M melanoma = test system: MALME-3M melanoma
NCI/ADR-RES ovarian = test system: NCI/ADR-RES ovarian
HCT-116 colon = test system: HCT-116 colon
M14 melanoma = test system: M14 melanoma
SNB-19 CNS = test system: SNB-19 CNS
HT29 colon = test system: HT29 colon
OVCAR-5 ovarian = test system: OVCAR-5 ovarian
BT-549 breast = test system: BT-549 breast
IGROV1 ovarian = test system: IGROV1 ovarian
MDA-MB-435 = test system: MDA-MB-435
SF-539 CNS = test system: SF-539 CNS
A498 renal = test system: A498 renal
U251 CNS = test system: U251 CNS
LOX IMVI melanoma = test system: LOX IMVI melanoma
EKVX NSCLC = test system: EKVX NSCLC
UO-31 renal = test system: UO-31 renal
HL-60(TB) leukemia = test system: HL-60(TB) leukemia
PC-3 prostate = test system: PC-3 prostate
SK-MEL-5 melanoma = test system: SK-MEL-5 melanoma
DU-145 prostate = test system: DU-145 prostate
SN12C renal = test system: SN12C renal
T-47D breast = test system: T-47D breast
RPMI-8226 leukemia = test system: RPMI-8226 leukemia
NCI-H460 lung = test system: NCI-H460 lung
K-562 leukemia = test system: K-562 leukemia
NCI-H23 lung = test system: NCI-H23 lung
COLO 205 colon = test system: COLO 205 colon
SF-295 CNS = test system: SF-295 CNS
TK-10 renal = test system: TK-10 renal
MDA-MB-231 breast = test system: MDA-MB-231 breast
KM12 colon = test system: KM12 colon
NCI-H522 lung = test system: NCI-H522 lung
HCT-15 colon = test system: HCT-15 colon
OVCAR-4 ovarian = test system: OVCAR-4 ovarian
NCI-H226 lung = test system: NCI-H226 lung
MOLT-4 leukemia = test system: MOLT-4 leukemia
CAKI-1 renal = test system: CAKI-1 renal

SMILES: O=C1C(Cl)=C(Cl)C(Cl)(Cl)C(Cl)C1(Cl)Cl (configuration not stated)
- TGI (HS 578T breast): 64.9 µM
- TGI (MDA-N): 66.2 µM
- TGI (HOP-92 NSCLC): 59.8 µM
- TGI (SF-268 CNS): 51.3 µM
- TGI (786-0 renal): > 100 µM
- TGI (SW-620 colon): 54.7 µM
- TGI (SK-OV-3 ovarian): 74.1 µM
- TGI (SK-MEL-2 melanoma): 34.3 µM
- TGI (SNB-75 CNS): 58.6 µM
- TGI (RXF 393 renal): 44.5 µM
- TGI (SK-MEL-28 melanoma): 62.1 µM
- TGI (HOP-62 NSCLC): 76.2 µM
- TGI (CCRF-CEM leukemia): 82.7 µM
- TGI (UACC-62 melanoma): 32.9 µM
- TGI (A549 NSCLC): 51.3 µM
- TGI (OVCAR-8 ovarian): > 100 µM
- TGI (OVCAR-3 ovarian): 47.4 µM
- TGI (MCF7 breast): 55 µM
- TGI (HCC-2998 colon): 34.9 µM
- TGI (ACHN renal): > 100 µM
- TGI (UACC-257 melanoma): 44.8 µM
- TGI (MALME-3M melanoma): 49.5 µM
- TGI (NCI/ADR-RES ovarian): 64 µM
- TGI (HCT-116 colon): 42.9 µM
- TGI (M14 melanoma): 90.8 µM
- TGI (SNB-19 CNS): 61 µM
- TGI (HT29 colon): 71.5 µM
- TGI (OVCAR-5 ovarian): 58 µM
- TGI (BT-549 breast): 54.1 µM
- TGI (IGROV1 ovarian): 33.2 µM
- TGI (MDA-MB-435): 59.2 µM
- TGI (SF-539 CNS): 32.8 µM
- TGI (A498 renal): 29.8 µM
- TGI (U251 CNS): 44.6 µM
- TGI (LOX IMVI melanoma): 41.6 µM
- TGI (EKVX NSCLC): 50.9 µM
- TGI (UO-31 renal): 32.7 µM
- TGI (HL-60(TB) leukemia): 58.4 µM
- TGI (PC-3 prostate): 77.1 µM
- TGI (SK-MEL-5 melanoma): 27.6 µM
- TGI (DU-145 prostate): > 100 µM
- TGI (SN12C renal): 50.6 µM
- TGI (T-47D breast): 75.9 µM
- TGI (RPMI-8226 leukemia): 70.4 µM
- TGI (NCI-H460 lung): 47.4 µM
- TGI (K-562 leukemia): > 100 µM
- TGI (NCI-H23 lung): 52.9 µM
- TGI (COLO 205 colon): 41.2 µM
- TGI (SF-295 CNS): 50.8 µM
- TGI (TK-10 renal): 65.3 µM
- TGI (MDA-MB-231 breast): 44.6 µM
- TGI (KM12 colon): 50.6 µM
- TGI (NCI-H522 lung): 32.5 µM
- TGI (HCT-15 colon): 98.8 µM

SMILES: COc1ccccc1-c1cc(=O)c2c(C)cc(C)nc2[nH]1
- TGI (OVCAR-4 ovarian): > 100 µM
- TGI (HS 578T breast): > 100 µM
- GI50 (MDA-N): 33.2 µM
- TGI (MDA-N): > 100 µM
- TGI (HOP-92 NSCLC): 94.4 µM
- TGI (SF-268 CNS): > 100 µM
- GI50 (786-0 renal): > 100 µM
- TGI (786-0 renal): > 100 µM
- TGI (SW-620 colon): > 100 µM
- TGI (SK-OV-3 ovarian): > 100 µM
- TGI (SK-MEL-2 melanoma): > 100 µM
- TGI (RXF 393 renal): > 100 µM
- TGI (SK-MEL-28 melanoma): > 100 µM
- TGI (HOP-62 NSCLC): > 100 µM
- TGI (CCRF-CEM leukemia): > 100 µM
- TGI (UACC-62 melanoma): > 100 µM
- TGI (A549 NSCLC): > 100 µM
- TGI (OVCAR-8 ovarian): > 100 µM
- GI50 (OVCAR-3 ovarian): 64.2 µM
- TGI (OVCAR-3 ovarian): > 100 µM
- TGI (MCF7 breast): > 100 µM
- TGI (HCC-2998 colon): > 100 µM
- TGI (ACHN renal): > 100 µM
- TGI (UACC-257 melanoma): > 100 µM
- TGI (MALME-3M melanoma): > 100 µM
- TGI (NCI/ADR-RES ovarian): > 100 µM
- GI50 (HCT-116 colon): 74.5 µM
- TGI (HCT-116 colon): > 100 µM
- TGI (M14 melanoma): > 100 µM
- TGI (NCI-H226 lung): > 100 µM
- TGI (SNB-19 CNS): > 100 µM
- TGI (HT29 colon): > 100 µM
- TGI (OVCAR-5 ovarian): > 100 µM
- TGI (BT-549 breast): > 100 µM
- TGI (IGROV1 ovarian): > 100 µM
- GI50 (MDA-MB-435): 32.1 µM
- TGI (MDA-MB-435): > 100 µM
- TGI (SF-539 CNS): > 100 µM
- TGI (A498 renal): > 100 µM
- GI50 (U251 CNS): > 100 µM
- TGI (U251 CNS): > 100 µM
- TGI (LOX IMVI melanoma): > 100 µM
- TGI (EKVX NSCLC): > 100 µM
- TGI (MOLT-4 leukemia): > 100 µM
- TGI (UO-31 renal): > 100 µM
- GI50 (HL-60(TB) leukemia): 30.4 µM
- TGI (HL-60(TB) leukemia): > 100 µM
- GI50 (PC-3 prostate): 48.3 µM
- TGI (PC-3 prostate): > 100 µM
- GI50 (SK-MEL-5 melanoma): 33.7 µM
- TGI (SK-MEL-5 melanoma): > 100 µM
- TGI (DU-145 prostate): > 100 µM
- TGI (SN12C renal): > 100 µM
- TGI (T-47D breast): > 100 µM
- TGI (RPMI-8226 leukemia): > 100 µM
- GI50 (NCI-H460 lung): 70.1 µM
- TGI (NCI-H460 lung): > 100 µM
- TGI (K-562 leukemia): > 100 µM
- TGI (NCI-H23 lung): > 100 µM
- TGI (COLO 205 colon): > 100 µM
- GI50 (SF-295 CNS): 53.1 µM
- TGI (SF-295 CNS): > 100 µM
- TGI (TK-10 renal): > 100 µM
- TGI (CAKI-1 renal): > 100 µM
- TGI (MDA-MB-231 breast): > 100 µM
- TGI (KM12 colon): > 100 µM
- TGI (NCI-H522 lung): > 100 µM
- TGI (HCT-15 colon): > 100 µM
